Test results reported in ChEMBL document CHEMBL3044818, “Fungicide resistance status in French populations of the wheat eyespot fungi Oculimacula acuformis and Oculimacula yallundae” (Pest Manag Sci, 2013).
≈ marks a conversion by molar mass, not a printed value.

Key:
[1] = system: Oculimacula yallundae; test: Resistance index, ratio of EC50 for sterol 14alpha-demethylation inhibitor-resistant Oculimacula yallundae MDR to EC50 for sterol 14alpha-demethylation inhibitor-resistant Oculimacula yallundae TriR1 by germ tube elongation assay; type: functional
[2] = system: Oculimacula yallundae; test: Resistance index, ratio of EC50 for sterol 14alpha-demethylation inhibitor-resistant Oculimacula yallundae TriR2 to EC50 for sterol 14alpha-demethylation inhibitor-resistant Oculimacula yallundae TriR1 by germ tube elongation assay; type: functional
[3] = system: Oculimacula yallundae; test: Fungicidal activity against prochloraz-susceptible Oculimacula yallundae isolate ProS assessed as inhibition of germ tube elongation incubated at 19 degC in dark for 48 hr; type: functional, organism-based
[4] = system: Oculimacula yallundae; test: Resistance index, ratio of EC50 for sterol 14alpha-demethylation inhibitor-resistant Oculimacula yallundae MDR to EC50 for wild type Oculimacula yallundae TriS by germ tube elongation assay; type: functional
[5] = system: Oculimacula yallundae; test: Resistance index, ratio of EC50 for sterol 14alpha-demethylation inhibitor-resistant Oculimacula yallundae MDR to EC50 for sterol 14alpha-demethylation inhibitor-resistant Oculimacula yallundae TriR1 by mycelial growth inhibition assay; type: functional
[6] = system: Oculimacula yallundae; test: Resistance index, ratio of EC50 for sterol 14alpha-demethylation inhibitor-resistant Oculimacula yallundae MDR to EC50 for wild type Oculimacula yallundae TriS by mycelial growth inhibition assay; type: functional
[7] = system: Oculimacula yallundae; test: Resistance index, ratio of EC50 for sterol 14alpha-demethylation inhibitor-resistant Oculimacula yallundae TriR1 to EC50 for wild type Oculimacula yallundae TriS by mycelial growth inhibition assay; type: functional
[8] = system: Oculimacula acuformis; test: Fungicidal activity against Oculimacula acuformis assessed as inhibition of germ tube elongation incubated at 19 degC in dark for 48 hr; type: functional, organism-based
[9] = system: Oculimacula yallundae; test: Resistance index, ratio of EC50 for sterol 14alpha-demethylation inhibitor-resistant Oculimacula yallundae TriR2 to EC50 for sterol 14alpha-demethylation inhibitor-resistant Oculimacula yallundae TriR1 by mycelial growth inhibition assay; type: functional
[10] = system: Oculimacula yallundae; test: Resistance index, ratio of EC50 for prochloraz-resistant Oculimacula yallundae isolate ProR1 to EC50 for prochloraz-susceptible Oculimacula yallundae isolate ProS by germ tube elongation inhibition assay; type: functional
[11] = system: Oculimacula yallundae; test: Resistance index, ratio of EC50 for sterol 14alpha-demethylation inhibitor-resistant Oculimacula yallundae TriR2 to EC50 for wild type Oculimacula yallundae TriS by mycelial growth inhibition assay; type: functional
[12] = system: Oculimacula yallundae; test: Resistance index, ratio of EC50 for sterol 14alpha-demethylation inhibitor-resistant Oculimacula yallundae TriR1 to EC50 for wild type Oculimacula yallundae TriS by germ tube elongation assay; type: functional
[13] = system: Oculimacula yallundae; test: Fungicidal activity against Oculimacula yallundae assessed as inhibition of mycelial growth in presence of 10 g glucose incubated at 19 degC in dark for 4 weeks; type: functional, organism-based; conditions: 672 h
[14] = system: Oculimacula yallundae; test: Resistance index, ratio of EC50 for sterol 14alpha-demethylation inhibitor-resistant Oculimacula yallundae TriR2 to EC50 for wild type Oculimacula yallundae TriS by germ tube elongation assay; type: functional
[15] = Selectivity index, ratio of EC50 for Oculimacula acuformis to EC50 for Oculimacula yallundae by germ tube elongation inhibition assay; type: functional
[16] = system: Oculimacula yallundae; test: Resistance index, ratio of EC50 for prochloraz-resistant Oculimacula yallundae isolate ProR2 to EC50 for prochloraz-susceptible Oculimacula yallundae isolate ProS by germ tube elongation inhibition assay; type: functional
[17] = system: Oculimacula yallundae; test: Fungicidal activity against prochloraz-susceptible Oculimacula yallundae isolate ProS assessed as inhibition of mycelial growth in presence of 10 g glucose incubated at 19 degC in dark for 4 weeks; type: functional, organism-based; conditions: 672 h
[18] = system: Oculimacula yallundae; test: Fungicidal activity against Oculimacula yallundae assessed as inhibition of germ tube elongation incubated at 19 degC in dark for 48 hr; type: functional, organism-based
[19] = system: Oculimacula yallundae; test: Resistance index, ratio of EC50 for prochloraz-resistant Oculimacula yallundae isolate ProR2 to EC50 for prochloraz-susceptible Oculimacula yallundae isolate ProS by mycelial growth inhibition assay; type: functional
[20] = system: Oculimacula acuformis; test: Fungicidal activity against Oculimacula acuformis assessed as inhibition of mycelial growth in presence of 10 g glucose incubated at 19 degC in dark for 4 weeks; type: functional, organism-based; conditions: 672 h
[21] = Selectivity index, ratio of EC50 for Oculimacula acuformis to EC50 for Oculimacula yallundae in presence of 10 g glucose by mycelial growth inhibition assay; type: functional
[22] = system: Oculimacula yallundae; test: Resistance index, ratio of EC50 for prochloraz-resistant Oculimacula yallundae isolate ProR1 to EC50 for prochloraz-susceptible Oculimacula yallundae isolate ProS by mycelial growth inhibition assay; type: functional

Row | Compound | Ratio EC50 [1] | Ratio EC50 [2] | EC50 [3] | Ratio EC50 [4] | Ratio EC50 [5] | Ratio EC50 [6] | Ratio EC50 [7] | EC50 [8] | Ratio EC50 [9] | Ratio EC50 [10] | Ratio EC50 [11] | Ratio EC50 [12] | EC50 [13] | Ratio EC50 [14] | Ratio EC50 [15] | Ratio EC50 [16] | EC50 [18] | EC50 [20] | Ratio EC50 [21] | other results
1 | Fc1ccc([C@]2(Cn3cncn3)O[C@H]2c2ccccc2Cl)cc1 (relative stereo) [EPOXICONAZOLE] | 5 | 2 | 0.3 µg/mL (≈ 0.91 µM) | 150 | 2 | 6.7 | 3.3 | 0.3 µg/mL (≈ 0.91 µM) | 1 | 2 | 3.3 | 30 | 0.15 µg/mL | 60 | 15 | 3 | 0.02 µg/mL (≈ 0.0606 µM) | 0.3 µg/mL | 2 | EC50 [17]: 0.3 µg/mL; Ratio EC50 [19]: 5; Ratio EC50 [22]: 3.3
2 | CCCN(CCOc1c(Cl)cc(Cl)cc1Cl)C(=O)n1ccnc1 [PROCHLORAZ] | 71 | 171 | 0.004 µg/mL (≈ 0.0106 µM) | 100 | 2 | 3 | 1.5 | 0.004 µg/mL (≈ 0.0106 µM) | 20 | 63 | 30 | 1.4 | 0.05 µg/mL | 240 | 0.8 | 75 | 0.005 µg/mL (≈ 0.0133 µM) | 0.04 µg/mL | 0.8 | EC50 [17]: 0.04 µg/mL; Ratio EC50 [19]: 25; Ratio EC50 [22]: 25
3 | Cc1cc(C)nc(Nc2ccccc2)n1 [PYRIMETHANIL] | 12 | 1.2 | – | 12 | – | – | – | – | – | – | – | 1 | – | 1.2 | – | – | 0.1 µg/mL (≈ 0.502 µM) | – | – | –
4 | C[Si](Cn1cncn1)(c1ccc(F)cc1)c1ccc(F)cc1 [FLUSILAZOLE] | – | – | 0.2 µg/mL (≈ 0.634 µM) | – | – | – | – | 0.2 µg/mL (≈ 0.634 µM) | – | 2.5 | – | – | 0.06 µg/mL | – | 25 | 5 | 0.008 µg/mL (≈ 0.0254 µM) | 0.4 µg/mL | 6.7 | EC50 [17]: 0.4 µg/mL; Ratio EC50 [19]: 6.2; Ratio EC50 [22]: 5
5 | CC(C1CC1)C(O)(Cn1cncn1)c1ccc(Cl)cc1 (stereo unspecified) [CYPROCONAZOLE] | 1 | 0.6 | 3 µg/mL (≈ 10.3 µM) | 160 | 0.9 | 20 | 23 | 3 µg/mL (≈ 10.3 µM) | 0.7 | 0.5 | 17 | 160 | 0.3 µg/mL | 100 | 60 | 0.8 | 0.05 µg/mL (≈ 0.171 µM) | 12 µg/mL | 40 | –
6 | CC(C)CC(C)c1sccc1NC(=O)c1cn(C)nc1C(F)(F)F (stereo unspecified) [PENTHIOPYRAD] | 12 | 1 | – | 12 | – | – | – | – | – | – | – | 1 | – | 1 | – | – | 0.02 µg/mL (≈ 0.0556 µM) | – | – | –
7 | Cc1cccc(N(C)C(=S)Oc2ccc3ccccc3c2)c1 [TOLNAFTATE] | >25 | 0.8 | – | >30 | – | – | – | – | – | – | – | 1.3 | – | 1 | – | – | 0.3 µg/mL (≈ 0.976 µM) | – | – | –
8 | Cc1cc(C2CC2)nc(Nc2ccccc2)n1 [CYPRODINIL] | 13 | 1 | – | 13 | – | – | – | 0.004 µg/mL (≈ 0.0178 µM) | – | – | – | 1 | 0.5 µg/mL | 1 | 1 | – | 0.004 µg/mL (≈ 0.0178 µM) | 0.06 µg/mL | 0.12 | –
9 | CC1=C(C(=O)Nc2ccccc2)SCCO1 [CARBOXIN] | 1.4 | 1.2 | – | 1.4 | – | – | – | – | – | – | – | 1 | – | 1.2 | – | – | 2.5 µg/mL (≈ 10.6 µM) | – | – | –
10 | CN(C/C=C/C#CC(C)(C)C)Cc1cccc2ccccc12 [TERBINAFINE] | – | – | – | – | – | – | – | 0.01 µg/mL (≈ 0.0343 µM) | – | – | – | – | 0.3 µg/mL | – | 1.3 | – | 0.008 µg/mL (≈ 0.0275 µM) | 0.25 µg/mL | 0.8 | –
11 | CCCOC/C(=N\c1ccc(Cl)cc1C(F)(F)F)n1ccnc1 [TRIFLUMIZOLE] | 1.1 | 0.3 | 9 µg/mL (≈ 26 µM) | 243 | – | – | – | 9 µg/mL (≈ 26 µM) | – | 0.1 | – | 214 | 0.8 µg/mL | 71 | 129 | 0.8 | 0.07 µg/mL (≈ 0.202 µM) | > 25 µg/mL | > 30 | –
12 | CC(C)(C)C(O)(CCc1ccc(Cl)cc1)Cn1cncn1 (stereo unspecified) [TEBUCONAZOLE] | 4 | 1.5 | 0.5 µg/mL (≈ 1.62 µM) | 267 | 1.3 | 25 | 20 | 0.5 µg/mL (≈ 1.62 µM) | 1.5 | 3 | 30 | 67 | 0.2 µg/mL | 100 | 17 | 5 | 0.03 µg/mL (≈ 0.0975 µM) | 4 µg/mL | 20 | –
13 | CC1(C(=O)Nc2ccc(O)c(Cl)c2Cl)CCCCC1 [FENHEXAMID] | 28 | 1 | – | 33 | 1.7 | 2.5 | 1.5 | 0.05 µg/mL (≈ 0.165 µM) | 0.8 | – | 1.2 | 1.2 | 0.4 µg/mL | 1.2 | 0.8 | – | 0.06 µg/mL (≈ 0.199 µM) | 0.32 µg/mL | 0.8 | –
14 | COC(=O)Nc1nc2ccccc2[nH]1 [CARBENDAZIM] | – | – | – | – | – | – | – | 0.04 µg/mL (≈ 0.209 µM) | – | – | – | – | 0.03 µg/mL | – | 1 | – | 0.04 µg/mL (≈ 0.209 µM) | 0.04 µg/mL | 1.3 | –
15 | COc1cc(C)c(C(=O)c2c(OC)ccc(Br)c2C)c(OC)c1OC [METRAFENONE] | – | – | – | – | 1.1 | 1.1 | 1 | > 25 µg/mL | 1.3 | – | 1.3 | – | 0.8 µg/mL | – | – | – | > 25 µg/mL | 0.08 µg/mL | 0.1 | –
16 | Clc1ccc(C2(Cn3cncn3)CC(Br)CO2)c(Cl)c1 (stereo unspecified) [BROMUCONAZOLE] | 2.5 | 1.2 | 0.8 µg/mL (≈ 2.12 µM) | 83 | 2 | 10 | 5 | 0.8 µg/mL (≈ 2.12 µM) | 2 | 0.6 | 10 | 33 | 0.2 µg/mL | 40 | 27 | 1 | 0.03 µg/mL (≈ 0.0796 µM) | 1.5 µg/mL | 8.5 | EC50 [17]: 1.5 µg/mL; Ratio EC50 [19]: 0.5; Ratio EC50 [22]: 0.3
17 | OC(Cc1ccccc1Cl)(Cn1nc[nH]c1=S)C1(Cl)CC1 (stereo unspecified) [PROTHIOCONAZOLE] | 30 | 1 | 0.06 µg/mL (≈ 0.174 µM) | 38 | 1.8 | 4.5 | 2.5 | 0.06 µg/mL (≈ 0.174 µM) | 0.8 | 1.2 | 2 | 1.3 | 0.4 µg/mL | 1.3 | 0.8 | 1.5 | 0.08 µg/mL (≈ 0.232 µM) | 0.5 µg/mL | 1.3 | EC50 [17]: 0.5 µg/mL; Ratio EC50 [19]: 2.4; Ratio EC50 [22]: 1.6
18 | CC(Cc1ccc(C(C)(C)C)cc1)CN1C[C@@H](C)O[C@@H](C)C1 (stereo partly specified) [FENPROPIMORPH] | – | – | – | – | – | – | – | 0.06 µg/mL (≈ 0.198 µM) | – | – | – | – | 15 µg/mL | – | 0.15 | – | 0.4 µg/mL (≈ 1.32 µM) | 1.8 µg/mL | 0.12 | –
